Laboratory results taken from ChEMBL document CHEMBL2046308, “Thiol-reactive compounds from garlic inhibit the epithelial sodium channel (ENaC)” (Bioorg Med Chem, 2012).
Active and inactive are the calls of the source. The rule behind the calls is not given here.

molecular target: T1, Amiloride-sensitive sodium channel, ENaC (Homo sapiens) (UniProt P37088+P51168+P51170); assay: Inhibition of human ENaC alpha-beta-gamma expressed in Xenopus laevis oocytes assessed as effect on transmembrane currents at 100 uM by two-electrode voltage-clamp technique; assay type: cell-based; settings: Oocyte

inhibition [%]	Structure (SMILES)
77	C=CCS[S+]([O-])CC=C (stereo unspecified)

molecular target: T1, Amiloride-sensitive sodium channel, ENaC (Homo sapiens); assay: Inhibition of human ENaC alpha-beta-gamma expressed in Xenopus laevis oocytes assessed as effect on transmembrane currents at 1 mM by two-electrode voltage-clamp technique; assay type: cell-based; settings: Oocyte

inhibition	Structure (SMILES)
inactive	C=CCSC[C@H](N)C(=O)O
inactive	C=CCSCC=C
inactive	C=CCSSSCC=C
inactive	C=CC[S@+]([O-])C[C@H](N)C(=O)O

Structure (SMILES)	inhibition
C=CCSSCC=C	inactive
